Results taken from US5089507A, “Heterocyclic piperidinyl compounds having analgesic effect” (Dr. L. Zambeletti SpA, priority 1988, dated 1992).
Structures can show the parent of a compound that is named as a salt.

Tests used:
Type in all cases: in vivo, Male Charles River mice (Swiss Strain)
[1] = system: mice (p-phenylquinone-induced abdominal writhing); experiment: P-phenylquinone-induced abdominal writhing test in mice; conditions: sc, 20 min pretreatment, p-phenylquinone 2 mg/Kg i.p.; for ED50: Mus musculus, 20 min, read-out: ANALGESIA M. WRITHING (GRADED) ED50
Protocol: A) P-phenylquinone-induced abdominal writhing test in mice
The methodology employed is based on that described by Sigmund et al, Proc. Soc. Exptl. Biol. 95, 729/1957, modified by Milne and Twomey, Agents and Actions, 10, 31/1980.
Male Charles River mice (Swiss Strain), 25-36 g body weight, were used. Animals were allowed food and water ad libitum and were randomized into groups of 10 prior to experimentation. Test compounds were dissolved in either distilled water or distilled water plus 0.1M AMS, and administered by the subcutaneous route in a final volume of 10 ml/Kg. Control animals received 10 ml/Kg of the appropriate vehicle alone. Following a pretreatment period of 20 min., mice were injected intraperitoneally with p-phenylquinone, 2 mg/Kg at 37° C. in a final volume of […]. […] During this period the number of abdominal writhing responses per animal were recorded where writhing consists of an intermittent contraction of the abdomen associated with hind leg extension.
The degree of antinociceptive protection afforded by the test compound was determined as the mean number of writhing responses observed in the treated group (T) expressed as a percentage of the mean number of writhing responses in the control group (C) according to the following formula:
[1-(T/C]×100% graded protection

mice (tail-flick) [2] = experiment: Tail-flick test in mice (quantal protection); conditions: sc, 30 min pretreatment; for ED50: Mus musculus, 0.5 h, read-out: ANALGESIA M. TAIL-FLICK (QUANTAL) ED50; for ANALGESIA M. TAIL-FLICK (QUANTAL) ED50: 30 min
Protocol: (§1) B) Tail-flick test in mice
(§2) The methodology employed is based on that described by D'Amour and Smith, J. Pharmacol. Exp. Ther. 72, 74/1941.
(§3) Male Charles River mice (Swiss Strain), 22-34 g body weight were used. Animals were allowed food and water ad libitum and were randomized into groups of 10 prior to experimentation.
Test compounds were dissolved in either distilled water or distilled water plus 0.1M AMS and administered by the subcutaneous route in a final volume of 10 ml/Kg. Control animals received 10 ml/kg of the appropriate vehicle alone. Following a pretreatment period of 30 min., the mice were again placed under the heat source and the reaction tine re-determined.
Percentage quantal protection was determined as the number of mice in which the reaction time was doubled compared to pretreatment values, expressed as a percentage of the total number of mice in the group.

mice (tail-flick) [3] = experiment: Duration of action, M. tail-flick (graded), % activity at MTFQ ED50; conditions: mouse, sc
Protocol: as §1, §2, §3
Test compounds were dissolved in either distilled water or distilled water plus 0.1M AMS and administered by the subcutaneous route in a final volume of 10 ml/Kg. Control animals received 10 ml/kg of the appropriate vehicle alone. Following a pretreatment period of 30 min., the mice were again placed under the heat source and the reaction tine re-determined. […]

SMILES | ED50 [1] | ED50 (mice (tail-flick) [2]) | ANALGESIA M. TAIL-FLICK (QUANTAL) % protection at 10 mg (mice (tail-flick) [2]; mouse) | ANALGESIA M. TAIL-FLICK (QUANTAL) ED50 (mice (tail-flick) [2]; mouse) | DURATION OF ACTION M. TAIL-FLICK (GRADED) % ACTIVITY AT MTFQ ED50, 30' (mice (tail-flick) [3]) | DURATION OF ACTION M. TAIL-FLICK (GRADED) % ACTIVITY AT MTFQ ED50, 90' (mice (tail-flick) [3]) | ANALGESIA M. WRITHING (GRADED) ED50 ([1]; mouse) | ANALGESIA M. TAIL-FLICK (QUANTAL) % protection at 1.78 mg/Kg (mice (tail-flick) [2]; mouse, 1.78 mg/Kg)
O=C(Cc1ccc(Cl)c(Cl)c1)N1CCC[C@@H](O)[C@@H]1CN1CCCC1 (relative stereo) [Example 7, 1-(3,4-dichlorophenyl)acetyl-2-(pyrrolidin-1-yl)methyl-3-hydroxy piperidine hydrochloride diastereoisomer A trans] | 0.141 mg/kg | 0.825 mg/kg | – | – | – | – | – | –
O=C(Cc1ccc(Cl)c(Cl)c1)N1CCC[C@H](O)[C@@H]1CN1CCCC1 (relative stereo) [Example 8, 1-(3,4-dichlorophenyl)acetyl-2-(pyrrolidin-1-yl)methyl-3-hydroxy piperidine hydrochloride diastereoisomer B cis] | – | – | 20% | – | – | – | – | –
CC1CCCN(C(=O)Cc2ccc(Cl)c(Cl)c2)C1CN1CCCC1 (single isomer, unassigned) [Example 1, 1-(3,4-dichlorophenyl)acetyl-2-(pyrrolidin-1-yl)methyl-3-methyl piperidine hydrochloride hemihydrate diasteroisomer A] | 0.093 mg/kg | – | – | 0.405 mg/kg | 87% | 68% | – | –
CC1CCCN(C(=O)Cc2ccc(Cl)c(Cl)c2)C1CN1CCCC1 (single isomer, unassigned) [Example 2, 1-(3,4-dichlorophenyl)acetyl-2-(pyrrolidin-1-yl)methyl-3-methyl piperidine hydrochloride diasteroisomer B] | – | – | – | 0.147 mg/kg | 66% | 44% | 0.091 mg/kg | –
CC1CCC(CN2CCCC2)N(C(=O)Cc2ccc(Cl)c(Cl)c2)C1 (single isomer, unassigned) [Example 4, 1-(3,4-dichlorophenylacetyl)-2-(pyrrolidin-1-yl)methyl-5-methyl piperidine hydrochloride diasteroisomer A] | 0.163 mg/kg | 0.749 mg/kg | – | – | 80% | 54% | – | –
CC1CCN(C(=O)Cc2ccc(Cl)c(Cl)c2)C(CN2CCCC2)C1 (single isomer, unassigned; diastereoisomer a) [Example 3, 1-(3,4-dichlorophenylacetyl)-2-(pyrrolidin-1-yl)methyl-4-methyl piperidine hydrochloride hemihydrate diastereoisomer A] | 0.149 mg/kg | 0.202 mg/kg | – | – | 86% | 17% | – | –
CC1CCCC(CN2CCCC2)N1C(=O)Cc1ccc(Cl)c(Cl)c1 (single isomer, unassigned; diastereoisomer a) [Example 5, 1-(3,4-dichlorophenyl)acetyl-2-(pyrrolidin-1-yl)methyl-6-methyl piperidine hydrochloride diastereoisomer A] | 0.03 mg/kg | 0.135 mg/kg | – | – | 83% | 42% | – | –
CC1CCCC(CN2CCCC2)N1C(=O)Cc1ccc(Cl)c(Cl)c1 (single isomer, unassigned; diastereoisomer a) [Example 6, 1-(3,4-dichlorophenyl)acetyl-2-(pyrrolidin-1-yl)methyl-6-methyl piperidine hydrochloride hemihydrate Diastereoisomer A] | – | – | – | – | 77% | 35% | – | 60%
CC1(C)CCCN(C(=O)Cc2ccc(Cl)c(Cl)c2)C1CN1CCCC1 (stereo not drawn) [Example 9, 1-(3,4-dichlorophenyl)acetyl-2-(pyrrolidin-1-yl)methyl-3,3-dimethyl piperidine hydrochloride] | 0.029 mg/kg | 0.136 mg/kg | – | – | 86% | 58% | – | –
CC1(C)CCCN(C(=O)Cc2ccc(C(F)(F)F)cc2)C1CN1CCCC1 (stereo not drawn) [Example 10, 1-(4-trifluoromethylphenyl)acetyl-2-(pyrrolidin-1-yl)methyl-3,3-dimethyl piperidine hydrochloride] | 0.023 mg/kg | 0.116 mg/kg | – | – | 59% | 57% | – | –
CC1(C)CCC(CN2CCCC2)N(C(=O)Cc2ccc(Cl)c(Cl)c2)C1 (stereo not drawn) [Example 11, 1-(3,4-dichlorophenyl)acetyl-2-(pyrrolidin-1-yl)methyl-5,5-dimethyl piperidine hydrochloride] | 0.605 mg/kg | 1.16 mg/kg | – | – | 59% | 57% | – | –
CC1(C)CCCN(C(=O)Cc2ccc3c(c2)CCCC3)C1CN1CCCC1 (stereo not drawn) [Example 12, 1-(5,6,7,8-tetrahydronapht-2-yl)acetyl-2-(pyrrolidin-1-yl) methyl-3,3-dimethyl piperidine hydrochloride] | 0.273 mg/kg | 1.21 mg/kg | – | – | 67% | 65% | – | –
CC1(C)CCCN(C(=O)Cc2ccc3c(c2)CCCC3=O)C1CN1CCCC1 (stereo not drawn) [Example 13, 1-[1-oxo-3,4-dihydro-(2H)-napht-6-yl]acetyl-2-(pyrrolidin-1-yl)methyl-3,3-dimethyl piperidine] | – | – | 60% | – | – | – | – | –
CC1(C)CCN(C(=O)Cc2ccc(Cl)c(Cl)c2)C(CN2CCCC2)C1 (stereo not drawn) [Example 14, 1-(3,4-dichlorophenyl)acetyl-2-(pyrrolidin-1-yl)methyl-4,4-dimethyl piperidine hydrochloride] | 0.147 mg/kg | 0.824 mg/kg | – | – | 69% | 69% | – | –
CC1(C)CCN(C(=O)Cc2ccc(C(F)(F)F)cc2)C(CN2CCCC2)C1 (stereo not drawn) [Example 15, 1-(4-trifluoromethylphenyl)acetyl-2-(pyrrolidin-1-yl)methyl-4,4-dimethyl piperidine hydrochloride] | 0.242 mg/kg | 1.8 mg/kg | – | – | 58% | 63% | – | –
